Reference: patent US20160002710A1, “REPORTER PHAGE AND […] BACTERIA” (priority 2014, published 2016)
≈ marks a conversion by molar mass, not a printed value.

How the values were obtained:
Assay type in all cases: cell-based
S. flexneri ATCC 25875 [1] = assay: Reporter phage (Shfl25875::luxAB) bioluminescence antibiotic susceptibility assay; details: 5 h growth with antibiotic, infection with reporter phage, read after 20 min
Description: (§1) Cells (5×10^5 CFU/mL) and antibiotics were prepared in cation-adjusted Mueller Hinton broth according to CLSI methodology. […] The same Shigella inoculum was grown for 5 h at 35° C. in the presence of antibiotics, infected with Shfl::luxAB, and bioluminescence assayed after 20 min.
(§2) Therefore, the ability of Shfl25875::luxAB to confer bioluminescence signal to Shigella spp. in the presence of antibiotics was compared to the standard CLSI broth microdilution method. […] Cells were incubated with a range of antibiotic concentrations in microtiter plates, incubated at 35° C., and assessed for growth (A625) after 20 h as per the CLSI protocol, or bioluminescence following infection by Shfl25875::luxAB.

S. flexneri ATCC 25875 [2] = assay: microbe, parasite or virus in culture; details: Shigella flexneri, ATCC25875; growth (A625) after 20 h at 35° C.; read-out: minimum inhibitory concentration
Description: as §1, §2

E. coli ATCC 25922 = assay: microbe, parasite or virus in culture; details: Escherichia coli, ATCC25922; cation-adjusted Mueller Hinton broth, 35° C., 20 h; within the acceptable range
Description: as §1

CC1(C)S[C@@H]2[C@H](NC(=O)[C@H](N)c3ccccc3)C(=O)N2[C@H]1C(=O)O [ampicillin]
Bioluminescence at antibiotic concentrations at the minimum inhibitory concentration or higher (S. flexneri ATCC 25875 [1]): at or close to background
MIC (S. flexneri ATCC 25875 [2]): 1 µg/mL (≈ 2.86 µM)
MIC (E. coli ATCC 25922): 2 µg/mL (≈ 5.72 µM)
